One assay concerns the target Btk (Rattus norvegicus, UniProt Q5S255). Kind of assay: Inhibition of Btk activity in blood: in vitro B cell activation assay (CD86) in rat whole blood. To be noted: Lewis rat whole blood diluted to 50%, anti-rat IgM + IL-4, CD86 on CD45RA positive B cells, 24 hours. The assay is classed as cell-based. As for the experimental part:
Alternatively, the inhibitory activity of the present compounds in blood was assessed in the following in vitro B cell activation assay. Whole blood was collected from the abdominal aorta of anaesthetized adult male Lewis rats and was anticoagulated with 100 U/ml sodium heparin. Blood was then diluted to 50% with high glucose DMEM (Amimed) supplemented with 100 U/ml penicillin, […] streptomycin, 2 mM L-glutamin, 50 mg/ml dextran 40 and 5% FCS (Fetaclone I, Gibco). Then, 190 μl prediluted blood was mixed in 96 well U-bottomed microtiter plates (Nunc) with 10 μl of serial dilutions of test compounds in DMSO. Cultures were incubated at 37° C., 5% CO2 for 1 hour, then 30 μl of rat IL-4 (Beckton-Dickinson, final concentration 5 ng/ml) and goat anti-rat IgM (Serotec, final concentration 15 ug/ml) were added and the cultures were incubated for 24 hours. Activation of B cells was measured by flow cytometry after staining for the B cell subset with PE-Cy5-labeled anti-ratCD45RA (Beckton-Dickinson) and for the activation marker CD86 (PE-labeled anti-rat CD86 (Beckton-Dickinson). All staining procedures were performed at RT for 30 min in the dark in 96-deep well V-bottomed microtiter plates (Corning) with BD Lysing Solution (Beckton-Dickinson). Cytometric data was acquired on a FACScalibur flow cytometer (BD Biosciences) and the subpopulation of lymphocytes were gated according to size and granularity and further analyzed for expression of CD45RA and the activation markers. Data for the inhibition of B cell activation were calculated from the percentage of cells positively stained for activation markers within the CD45RA positive population. Inhibition data were calculated by comparison to control cultures without anti-IgM and IL-4 (100% inhibition) and without inhibitors (0% inhibition). The concentration of inhibitor required for 50% inhibition (IC50) was calculated from the inhibition in response to inhibitor concentrations.

Assay [1] concerns the target full-length human recombinant BTK (Homo sapiens (Human), UniProt Q06187). Kind of assay: Inhibition of Btk enzymatic activity (biochemical enzyme assay, Caliper). To be noted: 30° C., 60 minutes. How it is done:
The inhibitory activity of the present compounds against Btk was assessed in a biochemical enzyme assay. Assay plates in 384 well format were prepared with 8-point serial dilutions for the test compounds on a Thermo CatX workstation equipped with a Innovadyne Nanodrop Express. The assay plates were prepared by addition of 50 nl per well of compound solution in 90% DMSO. The kinase reactions were started by stepwise addition of 4.5 μl per well of peptide/ATP-solution (4 μM FITC-Ahx-[…]-NH2, 164 μM ATP) in kinase buffer (50 mM HEPES, pH 7.5, 1 mM DTT, 0.02% Tween20, 0.02% BSA, 0.6% DMSO, 10 mM beta-glycerophosphate, and 10 μM sodium orthovanadate, 18 mM MgCl2, 1 mM MnCl2) and 4.5 μl per well of enzyme solution (6.4 nM full-length human recombinant BTK) in kinase buffer. Kinase reactions were incubated at 30° C. for 60 minutes and subsequently terminated by addition of 16 μl per well of stop solution (100 mM HEPES pH 7.5, 5% DMSO, 0.1% Caliper coating reagent, 10 mM EDTA, and 0.015% Brij35). Kinase reactions were analyzed on a Caliper LC3000 workstation by separating phosphorylated and unphosphorylated peptides and kinase activities were calculated from the amounts of newly formed phospho-peptide. Inhibition data were calculated by comparison to control reactions without enzyme (100% inhibition) and without inhibitors (0% inhibition). The concentration of inhibitor required for 50% inhibition (IC50) was calculated from the inhibition in response to inhibitor concentrations.

Our source for the IC50 values is patent publication US9233111B2, “Pyrrolo pyrimidine derivatives” (NOVARTIS AG, priority 2011, dated 2016).

The structures appear in SMILES notation.

full-length human recombinant BTK, sequence (Q06187 whole entry): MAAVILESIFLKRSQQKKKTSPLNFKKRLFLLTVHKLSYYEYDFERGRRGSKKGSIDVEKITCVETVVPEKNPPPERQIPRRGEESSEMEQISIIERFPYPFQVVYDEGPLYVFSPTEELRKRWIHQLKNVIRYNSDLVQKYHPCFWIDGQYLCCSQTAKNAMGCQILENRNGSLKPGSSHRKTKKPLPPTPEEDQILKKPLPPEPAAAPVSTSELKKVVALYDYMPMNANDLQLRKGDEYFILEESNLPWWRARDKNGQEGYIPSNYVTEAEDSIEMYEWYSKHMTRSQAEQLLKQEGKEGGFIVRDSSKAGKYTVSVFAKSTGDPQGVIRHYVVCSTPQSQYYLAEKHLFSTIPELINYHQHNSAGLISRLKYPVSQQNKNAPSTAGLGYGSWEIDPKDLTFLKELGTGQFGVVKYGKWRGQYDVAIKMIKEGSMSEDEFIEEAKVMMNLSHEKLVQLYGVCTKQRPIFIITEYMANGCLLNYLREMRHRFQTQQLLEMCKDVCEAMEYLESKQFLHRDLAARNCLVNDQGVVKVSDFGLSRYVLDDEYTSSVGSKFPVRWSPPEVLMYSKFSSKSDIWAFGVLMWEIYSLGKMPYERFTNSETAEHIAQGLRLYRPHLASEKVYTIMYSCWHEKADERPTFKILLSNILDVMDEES
Btk, sequence (Q5S255 1-660): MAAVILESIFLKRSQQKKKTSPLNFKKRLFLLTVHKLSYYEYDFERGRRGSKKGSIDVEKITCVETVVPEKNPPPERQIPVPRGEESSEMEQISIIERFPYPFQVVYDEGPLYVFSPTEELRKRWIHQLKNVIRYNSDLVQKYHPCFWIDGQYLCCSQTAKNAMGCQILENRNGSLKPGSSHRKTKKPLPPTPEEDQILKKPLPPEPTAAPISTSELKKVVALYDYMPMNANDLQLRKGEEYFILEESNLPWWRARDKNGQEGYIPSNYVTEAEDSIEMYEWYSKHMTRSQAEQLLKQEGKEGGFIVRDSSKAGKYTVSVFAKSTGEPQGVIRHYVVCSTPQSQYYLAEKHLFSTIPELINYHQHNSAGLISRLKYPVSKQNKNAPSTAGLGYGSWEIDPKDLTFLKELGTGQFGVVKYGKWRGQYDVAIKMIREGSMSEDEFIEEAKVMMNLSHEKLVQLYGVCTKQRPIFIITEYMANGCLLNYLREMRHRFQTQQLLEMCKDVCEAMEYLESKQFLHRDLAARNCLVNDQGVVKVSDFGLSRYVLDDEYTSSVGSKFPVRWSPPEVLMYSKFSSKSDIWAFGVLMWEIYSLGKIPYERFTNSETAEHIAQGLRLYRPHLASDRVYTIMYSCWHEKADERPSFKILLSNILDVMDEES

`Cc1c(NC(=O)c2ccc3c(c2)OCC3(C)C)cc(F)cc1-c1ncnc2[nH]c(C3=CCN(C(=O)N(C)C)CC3)cc12` [Example 2, 4-(4-{3-[(3,3-Dimethyl-2,3-dihydro-benzofuran-6-carbonyl)-amino]-5-fluoro-2-methyl-phenyl}-7H-pyrrolo[2′3-d]pyrimidin-6-yl)-3,6-dihydro-2H-pyridine-1-carboxylic acid dimethylamide]: the half-maximal inhibitory concentration (IC50) (as a rule, the concentration needed to halve the response being measured) turned out to be 72 nM on Btk and 4 nM in assay [1].
In the same order, the values of `Cc1c(NC(=O)c2ccc(C(C)(C)CO)cc2)cc(F)cc1-c1ncnc2[nH]c(C3=CCN(C(=O)N(C)C)CC3)cc12` [Example 6, 4-(4-{5-Fluoro-3-[4-(2-hydroxy-1,1-dimethyl-ethyl)-benzoylamino]-2-methyl-phenyl}-7H-pyrrolo[2,3-d]pyrimidin-6-yl)-3,6-dihydro-2H-pyridine-1-carboxylic acid dimethylamide] are 112 nM and 2 nM.
In the same order, the values of `CN(C)C(=O)N1CC=C(c2cc3c(-c4cccc(NC(=O)c5ccc(C6CC6)cc5)c4CO)ncnc3[nH]2)CC1` [Example 17, 4-{4-[3-(4-Cyclopropyl-benzoylamino)-2-hydroxymethyl-phenyl]-7H-pyrrolo[2,3-d]pyrimidin-6-yl}-3,6-dihydro-2H-pyridine-1-carboxylic acid dimethylamide] are 100 nM and 1 nM.
Regarding `Cc1c(NC(=O)c2ccc(C3CC3)cc2)cc(F)cc1-c1ncnc2[nH]c(C3=CCN(C(=O)CO)CC3)cc12` [Example 32, 4-Cyclopropyl-N-(5-fluoro-3-{6-[1-(2-hydroxy-actyl)-1,2,3,6-tetrahydro-pyridin-4-yl]-7H-pyrrolo[2,3-d]pyrimidin-4-yl}-2-methyl-phenyl)benzamide], the IC50 at Btk is 414 nM; in assay [1] it was 7 nM.
Regarding `CC(C)(C)c1ccc(C(=O)Nc2cccc(-c3ncnc4[nH]c(C5=CCC(O)CC5)cc34)c2CO)cc1` (stereo not drawn) [Example 55, 4-tert-Butyl-N-{3-[6 (4 hydroxy-cyclohex-1-enyl)-7H-pyrrolo[2,3-d]pyrimidin-4-yl]-2-hydroxymethyl-phenyl}-benzamide], the 50% inhibitory concentration (IC50) in assay [1] came out at 4 nM.
As to `CN(C)C1CC=C(c2cc3c(-c4cccc(NC(=O)c5ccc(C(C)(C)C)cc5)c4CO)ncnc3[nH]2)CC1` (stereo not drawn) [Example 56, 4-tert-Butyl-N-{3-[6 (4 dimethylamino-cyclohex-1-enyl)-7H-pyrrolo[2,3-d]pyrimidin-4-yl]-2-hydroxymethyl-phenyl}-benzamide], the IC50 in assay [1] turned out to be 2 nM.
Same read-out and setting: next, `Cc1c(NC(=O)N2CC(OC(C)(C)C)C2)cc(F)cc1-c1ncnc2[nH]c(C3=CCN(C(=O)N(C)C)CC3)cc12` [Example 57, 4-(4-{3-[(3-tert-Butoxy-azetidine-1-carbonyl)-amino]-5-fluoro-2-methyl-phenyl}-7H-pyrrolo[2,3-d]pyrimidin-6-yl)-3,6-dihydro-2H-pyridine-1-carboxylic acid dimethylamide]: 7 nM.
As to `Cc1c(NC(=O)N2CC(OC(C)C)C2)cc(F)cc1-c1ncnc2[nH]c(C3=CCN(C(=O)N(C)C)CC3)cc12` [Example 58, 4-(4-{5-Fluoro-3-[(3-isopropoxy-azetidine-1-carbonyl)-amino]-2-methyl-phenyl}-7H-pyrrolo[2,3-d]pyrimidin-6-yl)-3,6-dihydro-2H-pyridine-1-carboxylic acid dimethylamide], the 50% inhibitory concentration (IC50) on Btk amounted to 179 nM; in assay [1] it was 16 nM.
For `Cc1c(NC(=O)N2Cc3ccc(F)cc3C2)cc(F)cc1-c1ncnc2[nH]c(C3=CCN(C(=O)N(C)C)CC3)cc12` [Example 59, 5-Fluoro-1,3-dihydro-isoindole-2-carboxylic acid {3-[6-(1-dimethylcarbamoyl-1,2,3,6-tetrahydro-pyridin-4-yl)-7H-pyrrolo[2,3-d]pyrimidin-4-yl]-5-fluoro-2-methyl-phenyl}-amide], in assay [1], the IC50 was determined as 3 nM.
Turning to `Cc1c(NC(=O)N2CC(OC(C(F)(F)F)C(F)(F)F)C2)cc(F)cc1-c1ncnc2[nH]c(C3=CCN(C(=O)N(C)C)CC3)cc12` [Example 60, 4-[4-(5-Fluoro-2-methyl-3-{[3-(2,2,2-trifluoro-1-trifluoromethyl-ethoxy)-azetidine-1-carbonyl]-amino}-phenyl)-7H-pyrrolo[2,3-d]pyrimidin-6-yl]-3,6-dihydro-2H-pyridine-1-carboxylic acid dimethylamide], the half-maximal inhibitory concentration (IC50) in assay [1] was determined as 8 nM.
The same measure, in the same setting: the same measure for `Cc1c(NC(=O)N2CC(OC(C)(C)C)C2)cc(F)cc1-c1ncnc2[nH]c(C3=CCOCC3)cc12` [Example 61, 3-tert-Butoxy-azetidine-1-carboxylic acid {3-[6-(3,6-dihydro-2H-pyran-4-yl)-7H-pyrrolo[2,3-d]pyrimidin-4-yl]-5-fluoro-2-methyl-phenyl}-amide]: 6 nM; for `Cc1c(-c2ncnc3[nH]c(C4=CCN(C(=O)N(C)C)CC4)cc23)ccc(F)c1NC(=O)N1CC(OC(C)(C)C)C1` [Example 63, 4-(4-{3-[(3-tert-Butoxy-azetidine-1-carbonyl)-amino]-4-fluoro-2-methyl-phenyl}-7H-pyrrolo[2,3-d]pyrimidin-6-yl)-3,6-dihydro-2H-pyridine-1-carboxylic acid dimethylamide]: 2 nM; for `Cc1c(NC(=O)c2ccc(C(C)(C)C)cc2)cccc1-c1ncnc2[nH]c(C3=CCOCC3)cc12` [Example 64, 4-tert-Butyl-N-{3-[6-(3,6-dihydro-2H-pyran-4-yl)-7H-pyrrolo[2,3-d]pyrimidin-4-yl]-2-methyl-phenyl}-benzamide]: 15 nM.
Still for that read-out and setting: next, `Cc1c(NC(=O)c2ccc(C(C)(C)C)cc2)cccc1-c1ncnc2[nH]c(C3=CCC4(CC3)OCCO4)cc12` [Example 65, 4-tert-Butyl-N-{3-[6-(1,4-dioxa-spiro[4.5]dec-7-en-8-yl)-7H-pyrrolo[2,3-d]pyrimidin-4-yl]-2-methyl-phenyl}-benzamide]: 9 nM; `Cc1c(NC(=O)c2ccc(C(C)(C)C)cc2)cccc1-c1ncnc2[nH]c(C3=CCC(O)CC3)cc12` (stereo not drawn) [Example 66, 4-tert-Butyl-N-{3-[6 (4 hydroxy-cyclohex-1-enyl)-7H-pyrrolo[2,3-d]pyrimidin-4-yl]-2-methyl-phenyl}-benzamide]: 12 nM.
Consider `Cc1c(NC(=O)c2ccc(C(C)(C)C)cc2)cccc1-c1ncnc2[nH]c(C3=CCC(N(C)C)CC3)cc12` (stereo not drawn) [Example 67, 4-tert-Butyl-N-{3-[6 (4 dimethylamino-cyclohex-1-enyl)-7H-pyrrolo[2,3-d]pyrimidin-4-yl]-2-methyl-phenyl}-benzamide], for which the IC50 in assay [1] was determined as 8 nM.
